Results taken from patent US20200377459A1, “CHARGED ION CHANNEL BLOCKERS AND METHODS FOR USE” (President and Fellows of Harvard College, priority 2015, published 2020).

How the values were obtained:
human Nav1.7 channels = molecular target: T1, human Nav1.7 channels (Homo sapiens, UniProt Q15858); assay: Whole-cell patch clamp, use-dependent block of sodium current, drug applied intracellularly or externally; assay type: cell-based; details: for effect on sodium current when applied externally versus inside the cell: same protocol, applied outside the cell
T1 construct: expressed in transfected cells
T1 sequence (Q15858 whole entry): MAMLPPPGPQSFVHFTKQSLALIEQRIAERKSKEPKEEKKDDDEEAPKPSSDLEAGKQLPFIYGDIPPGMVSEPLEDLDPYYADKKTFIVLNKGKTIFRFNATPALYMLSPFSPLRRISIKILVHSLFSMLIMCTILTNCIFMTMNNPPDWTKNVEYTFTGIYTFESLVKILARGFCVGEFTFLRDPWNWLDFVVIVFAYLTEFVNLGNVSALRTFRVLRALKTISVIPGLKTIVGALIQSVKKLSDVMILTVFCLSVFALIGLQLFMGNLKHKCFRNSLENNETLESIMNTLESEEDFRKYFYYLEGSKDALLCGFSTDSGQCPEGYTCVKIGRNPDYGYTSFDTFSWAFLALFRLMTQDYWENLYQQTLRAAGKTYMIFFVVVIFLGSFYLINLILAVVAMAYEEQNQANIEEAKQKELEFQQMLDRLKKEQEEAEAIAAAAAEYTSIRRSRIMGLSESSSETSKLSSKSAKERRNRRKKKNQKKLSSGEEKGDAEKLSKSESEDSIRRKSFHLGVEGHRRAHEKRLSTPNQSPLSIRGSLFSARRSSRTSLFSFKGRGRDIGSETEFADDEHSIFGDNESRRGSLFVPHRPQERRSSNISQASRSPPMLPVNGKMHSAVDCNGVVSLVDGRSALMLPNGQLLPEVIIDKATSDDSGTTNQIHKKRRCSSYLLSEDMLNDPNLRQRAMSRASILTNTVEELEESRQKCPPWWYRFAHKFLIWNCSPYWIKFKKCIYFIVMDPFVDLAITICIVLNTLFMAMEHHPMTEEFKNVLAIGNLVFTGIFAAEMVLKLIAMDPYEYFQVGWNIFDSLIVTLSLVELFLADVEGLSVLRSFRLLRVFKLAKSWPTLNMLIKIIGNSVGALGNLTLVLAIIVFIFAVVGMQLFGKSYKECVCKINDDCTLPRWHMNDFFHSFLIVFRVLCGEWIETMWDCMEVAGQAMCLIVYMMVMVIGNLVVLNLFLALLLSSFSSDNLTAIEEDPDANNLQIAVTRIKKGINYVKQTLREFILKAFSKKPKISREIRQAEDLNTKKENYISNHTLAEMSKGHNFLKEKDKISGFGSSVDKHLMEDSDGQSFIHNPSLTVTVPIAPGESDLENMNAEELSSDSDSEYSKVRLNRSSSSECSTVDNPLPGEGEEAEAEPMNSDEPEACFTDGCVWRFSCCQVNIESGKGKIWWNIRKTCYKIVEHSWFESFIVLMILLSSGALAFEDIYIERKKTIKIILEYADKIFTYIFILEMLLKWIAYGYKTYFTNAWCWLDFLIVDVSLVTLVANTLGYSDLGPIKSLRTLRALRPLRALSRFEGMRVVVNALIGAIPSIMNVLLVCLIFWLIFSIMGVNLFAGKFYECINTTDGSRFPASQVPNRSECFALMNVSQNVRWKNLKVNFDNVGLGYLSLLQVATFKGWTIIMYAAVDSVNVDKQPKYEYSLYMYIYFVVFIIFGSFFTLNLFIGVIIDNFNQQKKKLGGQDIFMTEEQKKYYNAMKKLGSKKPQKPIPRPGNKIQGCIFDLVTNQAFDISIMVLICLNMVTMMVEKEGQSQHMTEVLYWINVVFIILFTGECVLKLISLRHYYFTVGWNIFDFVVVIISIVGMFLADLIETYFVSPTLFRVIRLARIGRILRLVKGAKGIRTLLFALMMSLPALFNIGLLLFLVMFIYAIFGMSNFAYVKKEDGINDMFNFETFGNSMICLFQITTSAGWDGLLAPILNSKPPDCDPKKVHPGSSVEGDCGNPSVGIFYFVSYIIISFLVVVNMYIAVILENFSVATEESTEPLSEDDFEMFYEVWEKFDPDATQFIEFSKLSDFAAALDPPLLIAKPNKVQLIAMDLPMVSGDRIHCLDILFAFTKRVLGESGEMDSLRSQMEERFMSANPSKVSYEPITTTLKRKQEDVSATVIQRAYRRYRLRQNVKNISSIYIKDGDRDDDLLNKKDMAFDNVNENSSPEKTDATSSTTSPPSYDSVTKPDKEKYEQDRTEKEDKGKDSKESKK
Method: Whole-cell recordings were made of currents carried by voltage-activated channels in HEK293 cells stably expressing human Nav1.7 channels. Recordings were made using patch pipettes with resistances of 2-3.5 MQ when filled with internal solution, consisting of 61 mM CsF, 61 mM CsCl, 9 mM NaCl, 1.8 mM MgCl2, 9 mM EGTA, 14 mM creatine phosphate (tris salt), 4 mM MgATP, and 0.3 mM GTP (tris salt), 9 mM HEPES, pH adjusted to 7.2 with CsOH. The shank of the electrode was wrapped with Parafilm in order to reduce capacitance and allow optimal series resistance compensation without oscillation. Seals were obtained and the whole-cell configuration established with cells in Tyrode's solution (155 mM NaCl, 3.5 mM KCl, 1.5 mM CaCl2), 1 mM MgCl2, 10 mM HEPES, 10 mM glucose, pH adjusted to 7.4 with NaOH) with 10 mM TEACl. To ensure complete dialysis with pipette solution, recordings began after 5 to 10 min after establishment of the whole-cell configuration.
Currents were recorded at room temperature (21-23° C.) with an Axopatch 200 amplifier and filtered at 5 kHz with a low-pass Bessel filter. The amplifier was tuned for partial compensation of series resistance (typically 70-80% of a total series resistance of 4-10 MO). Currents were digitized using a Digidata 1322A data acquisition interface controlled by pClamp9.2 software (Axon Instruments) and analyzed using programs written in Igor Pro 4.0 (Wavemetrics, Lake Oswego, Oreg.). Currents were corrected for linear capacitative and leak currents determined using 5 mV hyperpolarizations delivered from the resting potential (usually −80 or −100 mV) and then appropriately scaled and subtracted.
Sodium currents were evoked by 30-msec depolarizations from −100 mV to −20 mV. To assay use-dependent block, pulses were delivered at series of increasing rates: 0.05 Hz for 1-min, 0.33 Hz for 1-min, 1 Hz for 1-min, 3 Hz for 1-min, 5 Hz for 30 seconds, 10 Hz for 30 seconds, with 1 minute rest between each series of pulses. After the series of pulses to induce use-dependent block, the time course of recovery was followed using pulses delivered at 01. Hz (2-min) and 0.05 Hz (1-min).
To induce use-dependent block, the depolarizations were delivered by series of increasing rates: 0.05 Hz for 1-min, 0.33 Hz for 1-min, 1 Hz for 1-min, 3 Hz for 1-min, 5 Hz for 30 seconds, 10 Hz for 30 seconds, with 1 minute rest between each series of pulses. After the series of pulses to induce use-dependent block, the time course of recovery was followed using pulses delivered at 01. Hz (2-min) and 0.05 Hz (1-min). Peak sodium current was plotted as a function of experimental time (1-min per division on the time axis).

[1] = system: thermal nociceptive threshold; assay: Thermal nociceptive threshold after acute intraplantar injection in naive animals; assay type: in vivo, rats; details: naïve animals
[2] = system: CFA-induced thermal hyperalgesia; assay: CFA-induced thermal hyperalgesia (Hargreaves radiant heat, hind paw); assay type: in vivo; details: mice, intraplantar co-injection with CFA, 1%
Method: FIGS. 2A-2D show reversal of CFA-induced thermal hyperalgesia by charged sodium channel blockers. FIGS. 2A and 2C show time course (0, 1, 6, and 24 hours) of changes in thermal nociceptive sensitivity measured as response latency (seconds) to a constant radiant heat source applied to the plantar surface of hind paw in mice co-treated with 20 μL (injected in the left hindpaw) of CFA (50% emulsion) and saline, and when the CFA was co-applied with QX-314 (1%, hollow square), N-ethyl etidocaine (Compound 21, 1%; dark square), or ACS8180-3B (Compound 3, 1%; solid triangle). FIGS. 2B and 2D show the nociceptive heat pain response time before CFA treatment and after treatment with the different compounds 1 hour post CFA injection. The data are means±SEM of 8-16 mice per group. The statistical comparison with pre-CFA (*) and with CFA+Vehicle (+) is indicated by +P<0.05; ++P<0.01 and +++,*** P<0.001. All procedures were approved by the Institutional Animal Care and Use Committees. Mice and rats were housed in standard environmental conditions (12-h light/dark cycle; 23° C.; food and water ad libitum) at facilities accredited by the Association for Assessment and Accreditation of Laboratory Animal Care. 8-week old male BALB/c (stock number: 001026) and C57BL/6J (stock number 000664) mice were purchased from Jackson Laboratory and respectively used in allergic airway inflammation (FIG. 5) and pain hypersensitivity model (FIGS. 2A-2D). 6-week old male Sprague-Dawley (stock number: 400) rats, 150±25 grams, were purchased from Charles River laboratory and used to assess pain hypersensitivity (FIG. 3). The compounds were injected in the plantar surface of each animal's right hind paw in 10 μl (mice) or 50 μl (rats) volume of 1:1 emulsion of Complete Freund's Adjuvant (CFA). […] On the 4th day, their thermal nociceptive threshold was evaluated. […] Impact of treatment was analyzed 1 h prior and 1, 3, 6 and 24 h post-treatment. […] With each reading the apparatus was set with a cut-off time of 32 s.

Row | SMILES | inhibition at 100 µM (human Nav1.7 channels) | other results
1 | CC[N+](CC)(CC)CCNC(=O)c1c(C)cccc1C [Compound 25] | 3% | –
2 | Cc1cccc(C)c1NC(=O)C(C)[N+]1(C)CCCC1 (stereo not shown) [Compound 1, 1-(1-(2,6-dimethylphenylamino)-1-oxopropan-2-yl)-1-methylpyrrolidinium Chloride] | 40% | –
3 | Cc1cccc(C)c1NC(=O)C(C)[N+]1(C)CCCCC1 (stereo not shown) [Compound 4, 1-(1-(2,6-dimethylphenylamino)-1-oxopropan-2-yl)-1-methylpiperidinium Chloride] | 43% | –
4 | CCC(C(=O)Nc1c(C)cccc1C)[N+]1(CC)CCCC1 (stereo not shown) [Compound 3, 1-(1-(2,6-dimethylphenylamino)-1-oxobutan-2-yl)-1-ethylpyrrolidinium Chloride] | 78% | long lasting analgesia in naïve animals [1]: without long lasting analgesia; reversal of CFA-induced thermal hyperalgesia [2]: potent blockade
5 | CC[N+](CC)(CC)CC(=O)Nc1c(C)cc(N)cc1C [Compound 23, 2-(4-amino-2,6-dimethylphenylamino)-N, N, N-triethyl-2-oxoethanaminium Chloride] | 56% | –
6 | CC[N+]1(CC)CCCC1C(=O)Nc1c(C)cccc1C (stereo not shown) [Compound 14, 2-(2,6-dimethylphenylcarbamoyl)-1,1-diethylpyrrolidinium Chloride] | 62% | –
7 | CC[N+](CC)(CC)CCC(=O)Nc1c(C)cccc1C [Compound 24, 3-(2,6-dimethylphenylamino)-N,N,N-triethyl-3-oxopropan-1-aminium Chloride] | 15% | –
8 | Cc1cccc(C)c1NC(=O)C(C)(C)[N+]1(C)CCCC1 [Compound 2, 1-(1-(2,6-dimethylphenylamino)-2-methyl-1-oxopropan-2-yl)-1-methylpyrrolidinium Chloride] | 42% | –

Now from value to molecule, other results behind:

Row | inhibition at 100 µM (human Nav1.7 channels) | SMILES | other results
9 | 40% | CC[N+]1(CC)CCCCC1C(=O)Nc1c(C)cccc1C (stereo not shown) [Compound 15, 2-(2,6-dimethylphenylcarbamoyl)-1,1-diethylpiperidinium Chloride] | –
10 | 33% | Cc1cccc(C)c1NC(=O)C1CCC[N+]1(C)C (stereo not shown) [Compound 13, 2-(2,6-dimethylphenylcarbamoyl)-1,1-dimethylpyrrolidinium Chloride] | –
11 | 70% | Cc1cc(F)cc(C)c1NC(=O)C1CCCC[N+]1(C)C (stereo not shown) [Compound 16, 2-(4-fluoro-2,6-dimethylphenylcarbamoyl)-1,1-dimethylpiperidinium Chloride] | –
12 | 0% | CC[N+](CC)(CC)CC(=O)Nc1ccc(N)cc1 [Compound 22, 2-(4-aminophenylamino)-N,N,N-triethyl-2-oxoethanaminium] | –
13 | 83% | CCC(C(=O)Nc1c(C)cccc1C)[N+]1(CC)CCCCC1 (stereo not shown) [Compound 6, 1-(1-(2,6-dimethylphenylamino)-1-oxobutan-2-yl)-1-ethylpiperidinium] | use dependent accumulation of block (human Nav1.7 channels; 100 micromolar inside cell, stimulation frequencies from 1 to 10 Hz): strong use dependent accumulation of block; effect on sodium current when applied externally versus inside the cell (human Nav1.7 channels): far more effective when applied inside the cell; effect on sodium current when applied externally versus inside the cell (human Nav1.7 channels; listed as compound 6): very little effect
14 | 34% | Cc1cccc(C)c1NC(=O)C(C)(C)[N+]1(C)CCCCC1 [Compound 5, 1-(1-(2,6-dimethylphenylamino)-2-methyl-1-oxopropan-2-yl)-1-methylpiperidinium Chloride] | –
